US20130072517A1 (Avanir Pharmaceuticals, Inc., priority 2002, published 2013)

Experiments:
[1] = Clinical Study #2: plasma pharmacokinetics of dextromethorphan, dextrorphan and quinidine, single and multiple dose; settings: for AUC(0-t) / Cmax / half-life / Tmax: human, in vivo, mean, 30 mg DM HBr/25 mg Q sulfate capsule every 12 hours; for AUC(0-t): AUC (0-12) (plasma); for Cmax: Cmax (plasma); for half-life: T ½ el (plasma); for Tmax: Tmax (plasma)
Description: Descriptive statistics for each parameter, including mean, median, standard deviation, coefficient of variation, N, minimum, and maximum were calculated for all of the subjects by Day. In addition, descriptive statistics were presented by the subgroups: extensive metabolizer (EM) and poor metabolizer (PM).
The ANOVA model included the factors group (EM or PM), subject within group, day, and the interaction term day by group. The group effect was tested using the subject within group mean square, and all other main effects were tested using the residual error (error mean square). In addition, tests of the hypotheses Day 1=Day 4, Day 1=Day 8, and Day 4=Day 8 were performed.

[2] = system: ALS subjects with pseudobulbar affect; assay: Clinical Study #4: laughing/crying episode counts (diary); format: in vivo, human
Description: Diary cards were collected on Day 15 and at the time of study completion.
(§1) The primary efficacy variable was the CNS-LS score. All efficacy variables involving a change were determined by the baseline score being subtracted from the mean of the non-missing scores on Days 15 and 29. The secondary efficacy variables were laughing/crying episodes, QOL scores, and QOR scores. […]
(§2) Secondary efficacy was assessed by using two, 10-cm visual analog scales (VAS). One scale asked subjects to rate how much uncontrollable laughter, tearfulness, or anger had affected the overall quality of their life during the past week, and one scale asked subjects to rate how much uncontrollable laughter, tearfulness, or anger had affected the quality of their relationships with others during the past week. Each scale required less than one minute to complete. The subjects recorded episodes of pathological laughing and crying in a diary daily.
An analysis of secondary efficacy data was conducted.

[3] = system: ALS subjects with pseudobulbar affect; assay: Clinical Study #4: QOL and QOR visual analog scales; format: in vivo, human
Description: Subjects completed the CNS-LS questionnaire and visual analog scales assessing quality of life (QOL) and quality of relationships (QOR) every two weeks (Days 1, 15, and 29) during the treatment period. A clinical psychologist, or other approved clinician, administered the Hamilton Rating Scale for Depression (HRSD) at the Screening Visit and on Day 29. Safety was evaluated on Day 15 and Day 29 by examining adverse events, results of physical examinations, vital signs, clinical laboratory values, and resting electrocardiograms (ECGs). In addition to blood samples taken to provide clinical laboratory data, blood was also taken for pharmacokinetic analysis and CYP2D6 genotyping. Each subject completed a diary in which the number of episodes experienced, medications taken, and any adverse events were recorded daily.
as §1, §2

[4] = ITT population, diary, weighted by days in the study
[5] = proportional-variance (constant dispersion) negative binomial model
[6] = quadratic-variance (mean dispersion) negative binomial model
[7] = All Days: mean of scores on Days 15 and 29 minus Day 1

COc1ccc2c(c1)[C@]13CCCCC1[C@H](C2)N(C)CC3 (single isomer, unassigned; (+)) [Dextromethorphan, (+)-3-methoxy-N-methylmorphinan]
AUC(0-t) ([1]; Day 1, All Subjects): 148 ng·h/mL
AUC(0-t) ([1]; Day 1, EM): 133 ng·h/mL
AUC(0-t) ([1]; Day 1, PM): 198 ng·h/mL
AUC(0-t) ([1]; Day 4, All Subjects): 886 ng·h/mL
AUC(0-t) ([1]; Day 4, EM): 812 ng·h/mL
AUC(0-t) ([1]; Day 4, PM): 1150 ng·h/mL
AUC(0-t) ([1]; Day 8, All Subjects): 1160 ng·h/mL
AUC(0-t) ([1]; Day 8, EM): 1050 ng·h/mL
AUC(0-t) ([1]; Day 8, PM): 1530 ng·h/mL
Cmax ([1]; Day 1, All Subjects): 17.3 ng/mL
Cmax ([1]; Day 1, EM): 15.9 ng/mL
Cmax ([1]; Day 1, PM): 22.3 ng/mL
Cmax ([1]; Day 4, All Subjects): 83.1 ng/mL
Cmax ([1]; Day 4, EM): 76.7 ng/mL
Cmax ([1]; Day 4, PM): 106 ng/mL
Cmax ([1]; Day 8, All Subjects): 105 ng/mL
Cmax ([1]; Day 8, EM): 95.5 ng/mL
Cmax ([1]; Day 8, PM): 136 ng/mL
half-life ([1]; Day 8, All Subjects): 20.3 h
half-life ([1]; Day 8, EM): 13.1 h
half-life ([1]; Day 8, PM): 42 h
Tmax ([1]; Day 1, All Subjects): 7.11 h
Tmax ([1]; Day 1, EM): 6.85 h
Tmax ([1]; Day 1, PM): 8 h
Tmax ([1]; Day 4, All Subjects): 5.55 h
Tmax ([1]; Day 4, EM): 5.42 h
Tmax ([1]; Day 4, PM): 6 h
Tmax ([1]; Day 8, All Subjects): 5.77 h
Tmax ([1]; Day 8, EM): 5.99 h
Tmax ([1]; Day 8, PM): 4.99 h
Fold increase in AUC (0-12) from Day 1 to Day 8 ([1]; poor metabolizers): 6.1 fold
Weekly episode counts, Crying, Max ([2]; ITT population, diary): 21.00
Weekly episode counts, Crying, Median ([2]; ITT population, diary): 0.70
Weekly episode counts, Crying, Min ([2]; ITT population, diary): 0.00
Weekly episode counts, Laughing, Max ([2]; ITT population, diary): 726.55
Weekly episode counts, Laughing, Median ([2]; ITT population, diary): 2.50
Weekly episode counts, Laughing, Min ([2]; ITT population, diary): 0.00
Weekly episode counts, Laughing/Crying, Max ([2]; ITT population, diary): 726.55
Weekly episode counts, Laughing/Crying, Median ([2]; ITT population, diary): 8.97
Weekly episode counts, Laughing/Crying, Min ([2]; ITT population, diary): 0.00
Weekly episode counts, Crying, Wtd. Mean [2, 4]: 4.30
Weekly episode counts, Laughing, Wtd. Mean [2, 4]: 35.29
Weekly episode counts, Laughing/Crying, Wtd. Mean [2, 4]: 39.58
Total episodes, times greater than in the 30DM/30Q group ([2]; Poisson regression model with adjustment for center): 6.4
Total episodes, ratio to the 30DM/30Q group ([2]; Poisson regression model, outlier omitted): 2.3
Crying, estimated ratio relative to the named group [2, 5]: 2.0
Laughing, estimated ratio relative to the named group [2, 5]: 1.4
Total counts, estimated ratio relative to the named group [2, 5]: 1.7
Laughing, estimated ratio relative to the named group ([2]; proportional-variance negative binomial model, outlier subject omitted): 1.5
Crying rates, factor between 30DM/30Q and the named group [2, 6]: twice
Laughing rates, factor between 30DM/30Q and the named group [2, 6]: 2.6
Total episode rates, factor between 30DM/30Q and the named group [2, 6]: 2.6
Change in VAS QOL score, Max [3, 7]: 27
Change in VAS QOL score, Mean [3, 7]: −17.41
Change in VAS QOL score, Median [3, 7]: −11.0
Change in VAS QOL score, Min [3, 7]: −90.5
Change in VAS QOR score, Max [3, 7]: 23.5
Change in VAS QOR score, Mean [3, 7]: −9.98
Change in VAS QOR score, Median [3, 7]: −4.50
Change in VAS QOR score, Min [3, 7]: −71.0
Change in VAS QOL score, Max ([3]; Day 15 minus Day 1): 55
Change in VAS QOL score, Mean ([3]; Day 15 minus Day 1): −17.14
Change in VAS QOL score, Median ([3]; Day 15 minus Day 1): −13
Change in VAS QOL score, Min ([3]; Day 15 minus Day 1): −90
Change in VAS QOR score, Max ([3]; Day 15 minus Day 1): 34
Change in VAS QOR score, Mean ([3]; Day 15 minus Day 1): −11.75
Change in VAS QOR score, Median ([3]; Day 15 minus Day 1): −7
Change in VAS QOR score, Min ([3]; Day 15 minus Day 1): −71
Change in VAS QOL score, Max ([3]; Day 29 minus Day 1): 27
Change in VAS QOL score, Mean ([3]; Day 29 minus Day 1): −19.31
Change in VAS QOL score, Median ([3]; Day 29 minus Day 1): −7
Change in VAS QOL score, Min ([3]; Day 29 minus Day 1): −91
Change in VAS QOR score, Max ([3]; Day 29 minus Day 1): 26
Change in VAS QOR score, Mean ([3]; Day 29 minus Day 1): −10.38
Change in VAS QOR score, Median ([3]; Day 29 minus Day 1): −3.0
Change in VAS QOR score, Min ([3]; Day 29 minus Day 1): −71
